Assay results: PubChem BioAssay AID248 (DTP/NCI, 2004)
Several values for one entry are separate records, joined by “and”; a condition that tells them apart may be missing. Identical values can stand only once. Inconclusive results and toxic doses are left out. Cut-off read from the data, not from the text of the source: active = T/C of 150% or more; inactive = T/C below 125%.

Tested on: L1210 leukemia ip in BDF1 mice, survival T/C
Assay: NCI In Vivo Anticancer Drug Screen. Data for tumor model L1210 Leukemia (intraperitoneal) in B6D2F1 (BDF1) mice
Conditions: endpoint: mean survival time, higher = longer survival
Outline: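 Tumor cells were implanted, animals were treated, and survival was followed. The result divides the treated measurement by the vehicle-control measurement.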

[1] = dose: 100.0 mg/kg/injection, schedule: Q01DX001 (ip), vehicle: saline with Tween-80
[2] = dose: 200.0 mg/kg/injection, schedule: Q01DX001 (ip), vehicle: saline with Tween-80
[3] = dose: 400.0 mg/kg/injection, schedule: Q01DX001 (ip), vehicle: saline with Tween-80
[4] = dose: 100.0 mg/kg/injection, schedule: Q01DX009 (ip), vehicle: saline
[5] = dose: 100.0 mg/kg/injection, schedule: Q04DX003 (ip), vehicle: saline
[6] = dose: 200.0 mg/kg/injection, schedule: Q01DX009 (ip), vehicle: saline
[7] = dose: 200.0 mg/kg/injection, schedule: Q04DX003 (ip), vehicle: saline
[8] = dose: 100.0 mg/kg/injection, schedule: Q01DX001 (ip), vehicle: saline
[9] = dose: 75.0 mg/kg/injection, schedule: Q01DX001 (ip), vehicle: saline
[10] = dose: 100.0 mg/kg/injection, schedule: Q04DX003 (ip), vehicle: Klucel (hydroxypropylcellulose) (HPC)
[11] = dose: 150.0 mg/kg/injection, schedule: Q01DX001 (ip), vehicle: saline
[12] = dose: 200.0 mg/kg/injection, schedule: Q04DX003 (ip), vehicle: Klucel (hydroxypropylcellulose) (HPC)
[13] = dose: 300.0 mg/kg/injection, schedule: Q01DX001 (ip), vehicle: saline
[14] = dose: 400.0 mg/kg/injection, schedule: Q04DX003 (ip), vehicle: Klucel (hydroxypropylcellulose) (HPC)
[15] = dose: 100.0 mg/kg/injection, schedule: Q01DX009 (ip), vehicle: Klucel (hydroxypropylcellulose) (HPC)
[16] = dose: 200.0 mg/kg/injection, schedule: Q01DX009 (ip), vehicle: Klucel (hydroxypropylcellulose) (HPC)
[17] = dose: 100.0 mg/kg/injection, schedule: Q04DX002 (ip), vehicle: Klucel (hydroxypropylcellulose) (HPC)
[18] = dose: 200.0 mg/kg/injection, schedule: Q04DX002 (ip), vehicle: Klucel (hydroxypropylcellulose) (HPC)
[19] = dose: 400.0 mg/kg/injection, schedule: Q04DX002 (ip), vehicle: Klucel (hydroxypropylcellulose) (HPC)
[20] = dose: 100.0 mg/kg/injection, schedule: Q04DX002 (ip), vehicle: saline with Tween-80
[21] = dose: 200.0 mg/kg/injection, schedule: Q04DX002 (ip), vehicle: saline with Tween-80
[22] = dose: 400.0 mg/kg/injection, schedule: Q04DX002 (ip), vehicle: saline with Tween-80

Measured: T/C

O=S(=O)(/N=C1\C=CC=C\C1=N/S(=O)(=O)c1ccccc1)c1ccccc1
inactive: [1] 103 % of control | [2] 100 % of control | [3] 92 % of control

Cc1c2oc3c(C)ccc(C(=O)OCCN4CCOCC4)c3nc-2c(C(=O)OCCN2CCOCC2)c(N)c1=O
inactive: dose: 100.0 mg/kg/injection, schedule: Q04DX002 (ip), vehicle: saline 98 % of control | dose: 200.0 mg/kg/injection, schedule: Q04DX002 (ip), vehicle: saline 103 % of control

COC(=O)C(C)CN1CCCCC1 (centres undefined)
inactive: dose: 50.0 mg/kg/injection, schedule: Q01DX009 (ip), vehicle: saline 101 % of control | [4] 97 % of control | [5] 102 % of control | [6] 101 % of control | [7] 105 % of control

CC(=O)OCCC/C(=C\c1ccccc1)[N+](=O)[O-]
inactive: [8] 107 % of control

Cc1cc(C(=O)O)c(C)n1-c1ccccc1
inactive: dose: 75.0 mg/kg/injection, schedule: Q01DX009 (ip), vehicle: Klucel (hydroxypropylcellulose) (HPC) 100 % of control | dose: 150.0 mg/kg/injection, schedule: Q01DX009 (ip), vehicle: Klucel (hydroxypropylcellulose) (HPC) 95 % of control | dose: 300.0 mg/kg/injection, schedule: Q01DX009 (ip), vehicle: Klucel (hydroxypropylcellulose) (HPC) 92 % of control

CCOC(=O)c1cc(C(=O)OCC)c(C)nc1C
inactive: [9] 96 % of control | dose: 75.0 mg/kg/injection, schedule: Q01DX009 (ip), vehicle: saline 94 % of control | [10] 96 % of control | [11] 98 % of control | dose: 150.0 mg/kg/injection, schedule: Q01DX009 (ip), vehicle: saline 94 % of control | [12] 93 % of control | [13] 100 % of control | dose: 300.0 mg/kg/injection, schedule: Q01DX009 (ip), vehicle: saline 91 % of control | [14] 93 % of control

CC(=O)CC(=O)Nc1ccccc1C
inactive: dose: 50.0 mg/kg/injection, schedule: Q01DX001 (ip), vehicle: Klucel (hydroxypropylcellulose) (HPC) 100 % of control | dose: 100.0 mg/kg/injection, schedule: Q01DX001 (ip), vehicle: Klucel (hydroxypropylcellulose) (HPC) 106 % of control | dose: 200.0 mg/kg/injection, schedule: Q01DX001 (ip), vehicle: Klucel (hydroxypropylcellulose) (HPC) 106 % of control

COc1ccc2nc(C)c(COC(C)=O)cc2c1
inactive: [5] 100 % of control | [7] 98 % of control | dose: 400.0 mg/kg/injection, schedule: Q04DX003 (ip), vehicle: saline 105 % of control

O=C(N/N=C/c1ccc2c(c1)OCO2)c1ccc([N+](=O)[O-])cc1
inactive: dose: 50.0 mg/kg/injection, schedule: Q01DX001 (ip), vehicle: carboxymethylcellulose (CMC) 97 % of control | dose: 100.0 mg/kg/injection, schedule: Q01DX001 (ip), vehicle: carboxymethylcellulose (CMC) 92 % of control | dose: 200.0 mg/kg/injection, schedule: Q01DX001 (ip), vehicle: carboxymethylcellulose (CMC) 94 % of control | dose: 400.0 mg/kg/injection, schedule: Q01DX001 (ip), vehicle: carboxymethylcellulose (CMC) 92 % of control

O=C1C(c2c[nH]c3ccccc23)=Nc2ccc(Br)cc21
inactive: dose: 50.0 mg/kg/injection, schedule: Q01DX001 (ip), vehicle: saline 104 % of control | [8] 104 % of control | dose: 200.0 mg/kg/injection, schedule: Q01DX001 (ip), vehicle: saline 106 % of control

O=C(O)CCCSCCSCCCC(=O)O
inactive: [4] 97 % of control | [6] 103 % of control | dose: 400.0 mg/kg/injection, schedule: Q01DX009 (ip), vehicle: saline 86 % of control

COc1cc(C(=O)O)c(Br)cc1C
inactive: [15] 111 % of control | [10] 103 % of control | [16] 103 % of control | [12] 93 % of control | dose: 400.0 mg/kg/injection, schedule: Q01DX009 (ip), vehicle: Klucel (hydroxypropylcellulose) (HPC) 98 % of control | [14] 95 % of control

CN(C)CCC(CCC(=O)O)(C(=O)O)c1ccccc1 (centres undefined)
inactive: [9] 98 % of control | [11] 96 % of control | [13] 90 % of control

Oc1cccc2ccc3cccc(O)c3c12
inactive: dose: 100.0 mg/kg/injection, schedule: Q04DX003 (ip), vehicle: alcohol 100 % of control | dose: 200.0 mg/kg/injection, schedule: Q04DX003 (ip), vehicle: alcohol 93 % of control

CCCCCCCCCCCCCCCCCC(=O)Oc1c(C(C)(C)C)cc([N+](=O)[O-])c(C)c1[N+](=O)[O-]
inactive: [17] 92 % of control | [18] 92 % of control | [19] 96 % of control

COc1ccc([N+](=O)[O-])cc1NS(=O)(=O)c1cccc([N+](=O)[O-])c1
inactive: [1] 95 % of control | dose: 100.0 mg/kg/injection, schedule: Q01DX009 (ip), vehicle: saline with Tween-80 89 % of control and 92 % of control | [20] 97 % of control and 101 % of control | dose: 100.0 mg/kg/injection, schedule: Q04DX003 (ip), vehicle: saline with Tween-80 97 % of control | [2] 91 % of control | dose: 200.0 mg/kg/injection, schedule: Q01DX009 (ip), vehicle: saline with Tween-80 92 % of control | [21] 95 % of control and 97 % of control | dose: 200.0 mg/kg/injection, schedule: Q04DX003 (ip), vehicle: saline with Tween-80 97 % of control | [3] 91 % of control | dose: 400.0 mg/kg/injection, schedule: Q01DX009 (ip), vehicle: saline with Tween-80 106 % of control | [22] 94 % of control and 101 % of control | dose: 400.0 mg/kg/injection, schedule: Q04DX003 (ip), vehicle: saline with Tween-80 90 % of control

NC1CCCN(Cc2ccccc2)C1 (centres undefined)
inactive: dose: 75.0 mg/kg/injection, schedule: Q04DX003 (ip), vehicle: saline 104 % of control | dose: 150.0 mg/kg/injection, schedule: Q04DX003 (ip), vehicle: saline 100 % of control

CCCCCCCCCCCCCCCCNc1cc(C)cc(C)c1
inactive: [10] 96 % of control | [12] 95 % of control | [14] 101 % of control

Cc1cccc(C)c1Nc1n[nH]c(=S)s1
inactive: [20] 102 % of control | [21] 105 % of control | [22] 105 % of control

CCOC(=O)c1cnc2c(cnn2CC)c1NCC(C)C
inactive: dose: 50.0 mg/kg/injection, schedule: Q01DX009 (ip), vehicle: Klucel (hydroxypropylcellulose) (HPC) 100 % of control | [15] 100 % of control | [16] 103 % of control

CC(CCc1cccc2ccccc12)(C(=O)O)C(=O)O
inactive: dose: 100.0 mg/kg/injection, schedule: Q01DX009 (ip), vehicle: saline sonified 92 % of control | [10] 104 % of control | dose: 200.0 mg/kg/injection, schedule: Q01DX009 (ip), vehicle: saline sonified 104 % of control | [12] 100 % of control | [14] 94 % of control

N#CC1c2ccccc2-c2ccccc2N1C(=O)c1ccccc1 (centres undefined)
inactive: [17] 93 % of control | [18] 96 % of control | [19] 107 % of control

O=C(O)COc1ccccc1OCC(=O)O
inactive: [15] 98 % of control | [10] 94 % of control | [16] 100 % of control | [12] 100 % of control | [14] 98 % of control
